What was measured:
[1] = tested on: anti-collagen antibody induced arthritis; assay: Anti-collagen antibody induced mouse model of rheumatoid arthritis (CAIA); assay type: in vivo, mice
Experimental: Twenty-four (24) male Balb/c mice, aged 6 to 8 weeks were used. […] On study Day 0 (study commencement), all mice were subjected to a 2 mg intravenous injection of ArthritoMAb™ antibody cocktail (MD Biosciences # S1203001) followed by an intraperitoneal injection of LPS ([…]) on study Day 3. […] Treatments were administered once daily on days 4, 6, 8 and 10 for all groups, except where dosing vacations applied. If an animal's weight dropped below 87% of its day 0 starting weight, the animal was not dosed until it gained weight equivalent to 90% or more of day 0 weight.
Arthritis development, clinical signs and body weights were monitored in all mice on study days 0, 3-8, 10 and 12. Observations included changes in skin, fur, eyes, mucous membranes, occurrence of secretions and excretions (e.g., diarrhea) and autonomic activity (e.g., lacrimation, salivation, piloerection, pupil size, unusual respiratory pattern). All paws (front left and right, and rear left and right) of each animal were examined for signs of arthritogenic responses prior to arthritis induction and test item or control item administration on study Day 0 and subsequently on study Days 3-8, 10 and 12 (study termination). Arthritis reactions were scored and recorded according to a 0-4 scale in ascending order of severity, as shown Table 5 below. Paw thickness was also measured using a dial caliper (Kroeplin, Munich, Germany).
The dose administered was calculated based on the assumption that the animals weighed, on average, 20 g. […] Vehicle for the vehicle control group was prepared by dissolving 0.6 g Pluronic and 0.6 g PVP in 100 mL distilled deionised water. The MAb stock solution (10 mg/mL) was supplied by MD Biosciences, Division of Morwell Diagnostics GmbH. LPS was diluted with PBS to achieve the appropriate concentration. Thorough vortexing was required just prior to its injection. […] A fixed volume of 200 μL was administered to each mouse.
Evaluation was primarily based on the mean values for arthritis scoring and paw thickness measurements. Where appropriate, analysis of the data by ANOVA with Tukey post hoc analysis was applied to determine significance of treatment effects.

PMA-induced psoriasis = PMA-induced psoriasis in female BALB/c mice; assay type: in vivo; details: 10 μM topical, daily
Experimental: Twenty-four (24) female BALB/c mice, aged 6 to 8 weeks with a body weight between 22 and 30 g were used. The mice were randomized into […]. The grouping of animals was as follows: Group I (Naïve; ethanol), Group II (PMA; ethanol), Group III (PMA; […] Twenty (20) μL of PMA (4 μg/20 μL of acetone) was applied topically on the upper surface of pinna of ear of all animals in Group II to Group IV. PMA was applied daily on left ear and on alternate days (M-W-F) on right ear from Day 1 to Day 9. Thirty (30) minutes after application of PMA, vehicle or standard compound (betamethasone) or Compound 2 was applied topically to the ears of animals from different groups. […] Animals were observed daily for a period of 12 days for any treatment related symptoms. Basal ear thickness was recorded in all animals (before application of PMA) using digital screw gauge at time T0 (Day 1). […] Commercially available 100% DMSO (LR Grade) and ethanol (LR Grade) were used to prepare the formulations. PMA was prepared by dissolving 10 mg of PMA in 50.0 mL of acetone. Compound 2 was prepared by dissolving 1.47 mg of Compound 2 in 300 μL of 100% DMSO.

[2] = tested on: collagen-induced arthritis; assay: Collagen-induced arthritis (CIA) Study No. 2 in Lewis rats; assay type: in vivo
Experimental: To further investigate the effect of the compounds described herein on inflammation biomarkers, a second CIA model was initiated. In this model, the groups were designated as group A (naïve), group B (model; vehicle-treated), group C (Compound 2 at 5 mg/kg QoD). The rats in groups B and C were immunized intradermally with bovine Type II collagen in IFA on day 0, and a booster injection was given on day 7. Compound 2 was orally administered to rats with CIA after the onset of arthritis (Day 11). CIA development was evaluated via macroscopic scoring and measurements of paw swelling. This was assessed every day for the first 5 days after sensitization (day 7), and then twice per week (Monday and Thursday) until Day 28 using the clinical scoring system described in Table 7 above. In addition, ELISAs for CD45, CRP, CCL2/MCP-1, TNF-α, IL1-β, IL-6, IL-17, and measurements for cathepsin K and elastase were performed 4 days (Day 15 of the study) and 10 days (Day 21 of the study—peak for the disease) after compound treatment and at the very end of the study (Day 28) on all group animals. Additionally, on the last day of the study (Day 28), a few representative animals from each group were subjected to three-dimensional micro-tomodensitometry of calcaneus, and bone erosion in the paws was quantified.
A LUMINEX® assay and ELISA were used to measure the effects of Compound 2 on the levels of pro-inflammatory cytokines and inflammation markers. Synovial fluid was collected on Day 21, after the first immunization, from 2 rats in the model group and 2 rats in the Compound 2-treated group, and at the end of the study from 2 rats in the naïve group, 3 rats in the model group and 3 rats in the Compound 2-treated group.
A LUMINEX® assay was also used to measure the levels of pro-inflammatory cytokines in serum. Serum samples (1 mL of blood per rat) were collected 4 days after compound treatment (Day 15), 10 days after compound treatment (usually at the disease peak—Day 21) and at the end of the study (Day 27).

Question: What does the source list for `O=C(/C=C\n1cnc(-c2cc(C(F)(F)F)cc(C(F)(F)F)c2)n1)NNC(=O)CN1CCOCC1` [Compound 2, (Z)-3-(3-(3,5-bis(trifluoromethyl)phenyl)-1H-1,2,4-triazol-1-yl)-N′-(2-morpholinoacetyl)acrylohydrazide]?
Answer: total arthritis score compared to vehicle ([1]; 4 mg/kg orally, days 6-12): significantly reduced total arthritis scores; anti-arthritic activity (mean arthritis scores, paw thickness) ([1]; 7.5 mg/kg or 4 mg/kg orally): significant anti-arthritic activity; rear paw arthritis score compared to vehicle ([1]; 7.5 mg/kg or 4 mg/kg orally, days 5-12): significantly reduced rear paw arthritis scores; total arthritis score compared to vehicle ([1]; 7.5 mg/kg orally, days 5-12): significantly reduced total arthritis scores; anti-psoriatic activity (PMA-induced psoriasis): statistically significant anti-psoriatic activity; left and right ear disease activity index (DAI) (PMA-induced psoriasis): prominent reduction in PMA-induced increases; left and right ear thickness (PMA-induced psoriasis): prominent reduction in PMA-induced increases; clinical scores compared to vehicle-treated rats ([2]; 5 mg/kg QoD oral): significantly reduced; joint swelling compared to vehicle-treated rats ([2]; 5 mg/kg QoD oral): significantly reduced; bone erosion in the rear paws compared to vehicle-treated rats ([2]; 5 mg/kg QoD oral, Day 28): significantly reduced bone erosion; IL-1β production in serum compared to the model group ([2]; 5 mg/kg QoD, Days 15, 21 and 27): inhibitory effect; C-reactive protein (CRP) in synovial fluid compared to the model group ([2]; 5 mg/kg QoD, Days 21 and 27): inhibitory effects; IL-1β in synovial fluid compared to the model group ([2]; 5 mg/kg QoD, Days 21 and 27): inhibitory effects; IL-6 in synovial fluid compared to the model group ([2]; 5 mg/kg QoD, Days 21 and 27): inhibitory effects; MCP-1 in synovial fluid compared to the model group ([2]; 5 mg/kg QoD, Days 21 and 27): inhibitory effects
